The results in this text go back to ChEMBL document CHEMBL4842358, “Design, synthesis and biological evaluation of sphingosine-1-phosphate receptor 2 antagonists as potent 5-FU-resistance reversal agents for the treatment of colorectal cancer” (Eur J Med Chem, 2021).

Each structure is given as a SMILES string. A value given as a limit tells only on which side of the number the result lay.

Tested on in one assay: not listed separately
Description: Reversal of 5-FU resistance against human SW620/5-FU cells assessed as inhibition of cell proliferation measured after 72 hrs in presence of 5-FU by MTT assay. In kind it is functional, cell-based.
Conditions: not given
For orientation: Tetrazolium assays rely on reduction of a dye to a coloured formazan, in cell work by metabolically active cells.
Regarding `CNc1cc(C)nc(NNC(=O)Nc2cc(Cl)nc(Cl)c2)n1`, the EC50 was 122 µM.
Same read-out and setting: the figure for `Cn1ccc2c(-c3ccccc3)nc(NNC(=O)Nc3cc(Cl)nc(Cl)c3)nc21` is 528 µM.
With `CN1CCN(C(=O)Nc2cc(Cl)nc(Cl)c2)CC1`, the EC50 was 548 µM.
Still for that read-out and setting: the figure for `O=C(Nc1ccnc(Cl)c1)Nc1cc(Cl)nc(Cl)c1` is 31.2 µM; for `Cc1cc(NC(=O)Nc2cc(Cl)nc(Cl)c2)n(C)n1` it is 67.2 µM; for `O=c1[nH]cc(F)c(=O)[nH]1` [FLUOROURACIL] it is over 1000 µM.
Same read-out and setting: the figure for `Cc1cc(NC(=O)Nc2cc(Cl)nc(Cl)c2)cc(C)n1` is 234 µM; for `O=C(NNc1nc(Nc2ccccc2)nc(N2CCCC2)n1)Nc1cc(Cl)nc(Cl)c1` it is 31.9 µM; for `CN(C)c1nc(NNC(=O)Nc2cc(Cl)nc(Cl)c2)nc2c1ccn2C` it is 48.2 µM.
Still for that read-out and setting: the same measure for `O=C(NNc1nc(N2CCOCC2)c2ccn(C3CC3)c2n1)Nc1cc(Cl)nc(Cl)c1`: 436 µM.

Another assay has as its system NCM460. Kind of assay: Cytotoxicity against human NCM460 cells assessed as cell viability measured after 72 hrs in presence of 5-FU by MTT assay. The format is cell-based. Conditions: NCM460, 72 h.
On to `CNc1cc(C)nc(NNC(=O)Nc2cc(Cl)nc(Cl)c2)n1`, for which the EC50 was 65.3 µM.
On the same count and under the same terms, the figure for `Cn1ccc2c(-c3ccccc3)nc(NNC(=O)Nc3cc(Cl)nc(Cl)c3)nc21` is 683 µM; for `CN1CCN(C(=O)Nc2cc(Cl)nc(Cl)c2)CC1` it is 521 µM.
Still for that read-out and setting: the figure for `O=C(Nc1ccnc(Cl)c1)Nc1cc(Cl)nc(Cl)c1` is 55.3 µM; for `Cc1cc(NC(=O)Nc2cc(Cl)nc(Cl)c2)n(C)n1` it is 134 µM; for `O=c1[nH]cc(F)c(=O)[nH]1` [FLUOROURACIL] it is 43.3 µM.
On the same count and under the same terms, the same measure for `Cc1cc(NC(=O)Nc2cc(Cl)nc(Cl)c2)cc(C)n1`: 576 µM; for `O=C(NNc1nc(Nc2ccccc2)nc(N2CCCC2)n1)Nc1cc(Cl)nc(Cl)c1`: 65.2 µM; for `CN(C)c1nc(NNC(=O)Nc2cc(Cl)nc(Cl)c2)nc2c1ccn2C`: 58.5 µM.
For the compound `O=C(NNc1nc(N2CCOCC2)c2ccn(C3CC3)c2n1)Nc1cc(Cl)nc(Cl)c1`, the half-maximal effective concentration (EC50) was found to be 549 µM.

The test system of the next assay is HCT-116. Description: Reversal of 5-FU resistance against human HCT-116 cells overexpressing DPD assessed as inhibition of cell proliferation measured after 72 hrs in presence of 5-FU by MTT assay. Conditions: HCT-116, 72 h. The format is functional, cell-based.
On to `CNc1cc(C)nc(NNC(=O)Nc2cc(Cl)nc(Cl)c2)n1`, for which the EC50 is 23.4 µM.
Still for that read-out and setting: the figure for `Cn1ccc2c(-c3ccccc3)nc(NNC(=O)Nc3cc(Cl)nc(Cl)c3)nc21` is 660 µM; for `CN1CCN(C(=O)Nc2cc(Cl)nc(Cl)c2)CC1` it is 142 µM.
On to `O=C(Nc1ccnc(Cl)c1)Nc1cc(Cl)nc(Cl)c1`, for which the EC50 is 16.1 µM.
On the same count and under the same terms, the figure for `Cc1cc(NC(=O)Nc2cc(Cl)nc(Cl)c2)n(C)n1` is 94.2 µM; for `O=c1[nH]cc(F)c(=O)[nH]1` [FLUOROURACIL] it is over 1000 µM.
The same measure, in the same setting: the same measure for `Cc1cc(NC(=O)Nc2cc(Cl)nc(Cl)c2)cc(C)n1`: 86.2 µM; for `O=C(NNc1nc(Nc2ccccc2)nc(N2CCCC2)n1)Nc1cc(Cl)nc(Cl)c1`: 23.2 µM.
With `CN(C)c1nc(NNC(=O)Nc2cc(Cl)nc(Cl)c2)nc2c1ccn2C`, the EC50 turned out to be 41.5 µM.
In the case of `O=C(NNc1nc(N2CCOCC2)c2ccn(C3CC3)c2n1)Nc1cc(Cl)nc(Cl)c1`, the EC50 was 449 µM.

The target of a further assay is T1, Sphingosine 1-phosphate receptor 2 (Homo sapiens, UniProt O95136). Kind of assay: Binding affinity to S1PR2 (unknown origin) assessed as dissociation constant measured for 60 secs by surface plasmon resonance assay.
T1 sequence (O95136 whole entry): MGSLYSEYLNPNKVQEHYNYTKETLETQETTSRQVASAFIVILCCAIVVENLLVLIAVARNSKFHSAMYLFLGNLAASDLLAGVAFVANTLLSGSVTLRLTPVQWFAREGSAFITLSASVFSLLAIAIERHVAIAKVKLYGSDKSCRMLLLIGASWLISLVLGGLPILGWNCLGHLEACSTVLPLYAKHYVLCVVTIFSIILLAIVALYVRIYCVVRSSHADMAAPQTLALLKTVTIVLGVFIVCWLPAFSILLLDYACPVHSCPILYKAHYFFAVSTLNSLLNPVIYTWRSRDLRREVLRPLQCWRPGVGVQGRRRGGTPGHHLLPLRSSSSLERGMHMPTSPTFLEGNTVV
Conditions: not given
(In general: In SPR one partner is held on a chip, and binding of the other changes the refractive index at the surface.)
Consider `CNc1cc(C)nc(NNC(=O)Nc2cc(Cl)nc(Cl)c2)n1`, for which the “Dissociation rate constant (koff)” value was 2.36 10^-1/s.
With `Cn1ccc2c(-c3ccccc3)nc(NNC(=O)Nc3cc(Cl)nc(Cl)c3)nc21`, the “Dissociation rate constant (koff)” value is given as 1.36 10^-1/s.
For the compound `CN1CCN(C(=O)Nc2cc(Cl)nc(Cl)c2)CC1`, the “Dissociation rate constant (koff)” value is 1.06 10^-1/s.
As for `O=C(Nc1ccnc(Cl)c1)Nc1cc(Cl)nc(Cl)c1`, the “Dissociation rate constant (koff)” value is 2.01 10^-1/s.
On the same count and under the same terms, the figure for `Cc1cc(NC(=O)Nc2cc(Cl)nc(Cl)c2)n(C)n1` is 1.77 10^-1/s; for `Cc1cc(NC(=O)Nc2cc(Cl)nc(Cl)c2)cc(C)n1` it is 1.46 10^-1/s.
Still for that read-out and setting: the same measure for `O=C(NNc1nc(Nc2ccccc2)nc(N2CCCC2)n1)Nc1cc(Cl)nc(Cl)c1`: 1.33 10^-1/s; for `CN(C)c1nc(NNC(=O)Nc2cc(Cl)nc(Cl)c2)nc2c1ccn2C`: 1.02 10^-1/s.
With `O=C(NNc1nc(N2CCOCC2)c2ccn(C3CC3)c2n1)Nc1cc(Cl)nc(Cl)c1`, the “Dissociation rate constant (koff)” value is reported as 1.33 10^-1/s.

For a further assay, the target named is T1, Sphingosine 1-phosphate receptor 2. Kind of assay: Binding affinity to S1PR2 (unknown origin) assessed as association constant measured for 60 secs by surface plasmon resonance assay. Conditions: filed as antagonist, time 60.0 sec.
On to `CNc1cc(C)nc(NNC(=O)Nc2cc(Cl)nc(Cl)c2)n1`, for which the Ka was 5.56 10^4/M/s.
On the same count and under the same terms, the same measure for `Cn1ccc2c(-c3ccccc3)nc(NNC(=O)Nc3cc(Cl)nc(Cl)c3)nc21`: 5.21 10^4/M/s.
In the case of `CN1CCN(C(=O)Nc2cc(Cl)nc(Cl)c2)CC1`, the Ka is 1.98 10^5/M/s.
Still for that read-out and setting: the figure for `O=C(Nc1ccnc(Cl)c1)Nc1cc(Cl)nc(Cl)c1` is 3.65 10^4/M/s; for `Cc1cc(NC(=O)Nc2cc(Cl)nc(Cl)c2)n(C)n1` it is 5.36 10^4/M/s; for `Cc1cc(NC(=O)Nc2cc(Cl)nc(Cl)c2)cc(C)n1` it is 5.69 10^6/M/s.
Regarding `O=C(NNc1nc(Nc2ccccc2)nc(N2CCCC2)n1)Nc1cc(Cl)nc(Cl)c1`, the Ka is 7.15 10^5/M/s.
The same measure, in the same setting: the same measure for `CN(C)c1nc(NNC(=O)Nc2cc(Cl)nc(Cl)c2)nc2c1ccn2C`: 7.55 10^4/M/s; for `O=C(NNc1nc(N2CCOCC2)c2ccn(C3CC3)c2n1)Nc1cc(Cl)nc(Cl)c1`: 6.12 10^4/M/s.

A further assay shares this target. Description: Binding affinity to S1PR2 (unknown origin) measured by surface plasmon resonance assay. The settings on record: filed as antagonist.
Turning to `CNc1cc(C)nc(NNC(=O)Nc2cc(Cl)nc(Cl)c2)n1`, the K was 4.24 10^-6M.
On the same count and under the same terms, the same measure for `Cn1ccc2c(-c3ccccc3)nc(NNC(=O)Nc3cc(Cl)nc(Cl)c3)nc21`: 2.61 10^-6M.
Still for that read-out and setting: the figure for `CN1CCN(C(=O)Nc2cc(Cl)nc(Cl)c2)CC1` is 5.35 10^-7M; for `O=C(Nc1ccnc(Cl)c1)Nc1cc(Cl)nc(Cl)c1` it is 5.5 10^-6M; for `Cc1cc(NC(=O)Nc2cc(Cl)nc(Cl)c2)n(C)n1` it is 3.3 10^-6M.
Turning to `Cc1cc(NC(=O)Nc2cc(Cl)nc(Cl)c2)cc(C)n1`, the K was 2.57 10^-8M.
Same read-out and setting: the figure for `O=C(NNc1nc(Nc2ccccc2)nc(N2CCCC2)n1)Nc1cc(Cl)nc(Cl)c1` is 1.86 10^-7M.
Same read-out and setting: the figure for `CN(C)c1nc(NNC(=O)Nc2cc(Cl)nc(Cl)c2)nc2c1ccn2C` is 1.85 10^-6M; for `O=C(NNc1nc(N2CCOCC2)c2ccn(C3CC3)c2n1)Nc1cc(Cl)nc(Cl)c1` it is 2.17 10^-6M.

By EC50 is commonly meant the concentration needed to bring the measured effect to its halfway point.
